Experimental findings from patent publication US7374905B2, “Medium composition, method and device for selectively enhancing the isolation of anaerobic microorganisms contained in a mixed sample with facultative microorganisms” (Oxyrase, Inc., priority 2000, dated 2008) are described below.

Test [1] relates to P. anaerobius mixed with E. coli and P. mirabilis. It counts as cell-based.
Test [2] relates to C. perfringens mixed with E. coli and P. mirabilis. It counts as cell-based.
The subject of test [3] is Escherichia coli.
Test [4] deals with F. nucleatum mixed with E. coli and P. mirabilis. The test is classed as cell-based.
Test [5] relates to P. levii mixed with E. coli and P. mirabilis. The test is classed as cell-based.
The test system of test [6] is Peptostreptococcus anaerobius. As to conditions: 48 hours, cultures of Table 4.
Test [7] concerns Proteus mirabilis.
Test [8] relates to Fusobacterium nucleatum. As to conditions: 48 hours, cultures of Table 4.
Test [9] has as its system B. fragilis mixed with E. coli and P. mirabilis. The test is classed as cell-based.

Turning to `[N-]=[N+]=[N-]` [Azide, sodium azide], the “Lowest concentration of azide in the tube that successfully separated the anaerobe” value in test [1] was found to be 0.1 mg/mL; in test [2] it was 0.1 mg/mL; in test [4], 0.1 mg/mL; in [5], 0.1 mg/mL; in [9] it was 0.2 mg/mL. In addition, in test [3], the “Concentration of azide that inhibited growth in anoxic broth” value is at most 0.1 mg/mL. The “Level of growth (below visible turbidity)” value in test [6] and in [8] was “less than 10^7 CFU/ml” throughout. The “Concentration of azide at which swarming is inhibited” value in [7] is recorded as “above 0.1 mg/ml”.
